{"source": "patent US8859617B2", "about": "“Use of furan alkyl for preparing an antidiabetic drug” (Laboratoires Expanscience, priority 2004, dated 2014)", "key": {"mice on HF/HS diet [1]": {"test_system": "mice on HF/HS diet", "experiment": "Weight of mice on HF/HS diet", "type": "in vivo", "conditions": "curative; TZD added to food", "experimental": "(§1) We used adult mice (aged 6 weeks) of masculine gender fattened on a high fat/high sucrose diet (HF/HS). Feeding with the HF/HS diet began on mice aged 6 weeks and continued throughout the period of the study. The study was conducted along 2 axes: • prevention: the product was administered as soon as feeding began with the HF/HS diet; • management (curative): the product was administered 12 weeks after the start of the HF/HS diet. Total treatment time (preventive and curative): 23 weeks.\n(§2) Each experimental group comprised 10 mice."}, "mice on HF/HS diet [2]": {"test_system": "mice on HF/HS diet", "experiment": "Blood parameters: plasma lipids (cholesterol, LDL, HDL, TG, FFA)", "type": "in vivo", "experimental": "as §1, §2\n(§3) Subsequently the following were analysed: lipoprotein profile (by size exclusion chromatography); apolipoportein Al; lipid composition of the liver (liver triglycerides, cholesterol and free fatty acids); histological analysis of the liver and adipose tissue; staining of accumulated lipids in the liver.\nThe different cholesterol blood levels and different fractions were analysed using a HPLC method."}, "mice on HF/HS diet [3]": {"test_system": "mice on HF/HS diet", "experiment": "Plasma lipoprotein profile (size exclusion chromatography)", "type": "in vivo", "conditions": "TZD", "experimental": "as §1, §2, §3"}, "mice on HF/HS diet [4]": {"test_system": "mice on HF/HS diet", "experiment": "Blood glucose and insulin analysis", "type": "in vivo", "experimental": "as §1, §2, §3"}, "mice on HF/HS diet [5]": {"test_system": "mice on HF/HS diet", "experiment": "Intraperitoneal Glucose Tolerance Test (IPGTT)", "type": "in vivo", "conditions": "TZD; for Glucose resistance (IPGTT): preventive", "quoted_text": "Each study started at D-7 (i.e. 7 days before the start of the HF/HS diet) with an analysis of glucose tolerance using either an intra-peritoneal glucose tolerance test for some of the animals (n=5) or a sensitivity test to intravenous insulin for the other animals (n=5). At D=0 blood samples were taken to obtain basal condition values for all lipid and lipoprotein parameters, then the mice were randomly distributed irrespective of weight. The weight of each mouse and the quantity of food absorbed were measured twice a week. At weeks 3, 8, 15 and 23 the blood was collected after overnight fasting. At weeks 12 and 18 some of the animals (n=5) were subjected to an intra-peritoneal glucose tolerance test, the others (n=5) to a sensitivity test to intravenous insulin.\nIn addition this prevailing tolerance is often accompanied by insulin resistance. • Protocol: • fasted mice, • measurement of glycaemia at TO, • intra-peritoneal injection of glucose, • measurement of glycaemia 15, 30, 45, 60, 90, 120 and 180 min. after injection, • kinetics performed weeks 1, 12 and 18 in the preventive group and week 18 in the curative group."}, "mice on HF/HS diet [6]": {"test_system": "mice on HF/HS diet", "experiment": "Intra Peritoneal Insulin Sensitive Test (IPIST)", "type": "in vivo", "conditions": "preventive", "source_text": "The HF/HS diet induces a strong resistance to glucose. […] The test used is the Intra Peritoneal Insulin Sensitive Test—IPIST."}, "mice on HF/HS diet [7]": {"test_system": "mice on HF/HS diet", "experiment": "Hepatic metabolism: transaminases and alkaline phosphatase (liver toxicity)", "type": "in vivo", "conditions": "plasma; considered very moderate, does not appear to reflect liver toxicity"}, "ACO (target PPARα)": {"test_system": "ACO (target PPARα)", "experiment": "mRNA analysis in the liver (Q-RT-PCR): ACO", "type": "in vivo, mice", "conditions": "TZD", "experimental": "(§4) the liver, the mRNA expressions of 8 genes were determined in 5 mice of each group using real-time Q-RT-PCR analysis."}, "PEPCK (target PPARγ)": {"test_system": "PEPCK (target PPARγ)", "experiment": "mRNA analysis in the liver (Q-RT-PCR): PEPCK", "type": "in vivo, mice", "conditions": "TZD", "experimental": "as §4"}, "CYP7A1": {"test_system": "CYP7A1", "experiment": "mRNA analysis in the liver (Q-RT-PCR): CYP7A1", "type": "in vivo, mice", "conditions": "TZD", "experimental": "as §4"}, "[8]": {"test_system": "ME, FAS, ACC (fatty acid synthesis)", "experiment": "mRNA analysis in the liver (Q-RT-PCR): ME, FAS, ACC", "type": "in vivo, mice", "conditions": "TZD", "experimental": "as §4"}, "[9]": {"test_system": "PGC-1 (mitochondria biogenesis)", "experiment": "mRNA analysis in muscles and BAT: PGC-1", "type": "in vivo, mice", "conditions": "muscle; TZD", "experimental": "In the brown adipose tissue (BAT) and in the muscles, the mRNA expression of 3 genes was determined in 5 mice of each group by real-time Q-RTR-PCR analysis."}, "[10]": {"conditions": "curative, TZD 10 mg/kg/day, (3 W***)"}, "[11]": {"conditions": "curative, TZD, after 3 and 11 weeks"}, "[12]": {"conditions": "preventive, TZD 10 mg/kg/day, (3 W***)"}, "[13]": {"conditions": "preventive, TZD, after 3, 8, 15 and 23 weeks"}}}
{"compound": "CN(CCOc1ccc(CC2SC(=O)NC2=O)cc1)c1ccccn1", "note": "(stereo not shown) [TZD, Rosiglitazone]", "values": [{"measurement": "Weight loss of overweight mice", "setting": "mice on HF/HS diet [1]", "result": "did not cause the overweight mice to lose weight"}, {"measurement": "Triglyceride level", "setting": "mice on HF/HS diet [2]; curative, TZD", "result": "No change"}, {"measurement": "LDL", "setting": "mice on HF/HS diet [2]; curative, TZD 10 mg/kg/day", "result": "↓"}, {"measurement": "HDL", "setting": "mice on HF/HS diet [2]; [10]", "result": "↓↓"}, {"measurement": "Total cholesterol", "setting": "mice on HF/HS diet [2]; [10]", "result": "↓↓"}, {"measurement": "HDL cholesterol level", "setting": "mice on HF/HS diet [2]; [11]", "result": "reduction"}, {"measurement": "LDL cholesterol level", "setting": "mice on HF/HS diet [2]; [11]", "result": "reduction"}, {"measurement": "Total cholesterol", "setting": "mice on HF/HS diet [2]; [11]", "result": "reduction"}, {"measurement": "LDL cholesterol level", "setting": "mice on HF/HS diet [2]; preventive, TZD", "result": "downward trend"}, {"measurement": "TG (triglycerides)", "setting": "mice on HF/HS diet [2]; preventive, TZD 10 mg/kg/day", "result": "↓"}, {"measurement": "HDL", "setting": "mice on HF/HS diet [2]; [12]", "result": "↓↓"}, {"measurement": "Total cholesterol", "setting": "mice on HF/HS diet [2]; [12]", "result": "↓↓"}, {"measurement": "HDL cholesterol level", "setting": "mice on HF/HS diet [2]; [13]", "result": "significant reduction"}, {"measurement": "Total cholesterol level", "setting": "mice on HF/HS diet [2]; [13]", "result": "significant reduction"}, {"measurement": "Plasma levels of triglycerides", "setting": "mice on HF/HS diet [2]; preventive, TZD, after 8 weeks, no additional reduction after 15 and 23 weeks", "result": "significantly reduced"}, {"measurement": "HDL and VLDL cholesterol fractions", "setting": "mice on HF/HS diet [3]; curative, after 3 weeks", "result": "reduction"}, {"measurement": "HDL, LDL and VLDL cholesterol fractions", "setting": "mice on HF/HS diet [3]; preventive, weeks 8 and 15", "result": "reduction"}, {"measurement": "GLUCOSE", "setting": "mice on HF/HS diet [4]; curative, TZD 10 mg/kg/day, (3 W**)", "result": "↓↓"}, {"measurement": "Glucose levels", "setting": "mice on HF/HS diet [4]; [11]", "result": "dropped considerably"}, {"measurement": "“Constitutive” hyperglycaemia", "setting": "mice on HF/HS diet [4]; preventive, TZD", "result": "return to normal"}, {"measurement": "GLUCOSE", "setting": "mice on HF/HS diet [4]; preventive, TZD 10 mg/kg/day", "result": "↓"}, {"measurement": "INSULIN", "setting": "mice on HF/HS diet [4]; preventive, TZD 10 mg/kg/day", "result": "↓"}, {"measurement": "Glucose level reduction", "setting": "mice on HF/HS diet [4]; preventive, TZD, weeks 8, 15 and 23", "result": "no longer observed"}, {"measurement": "Already established, diet-induced glucose resistance", "setting": "mice on HF/HS diet [5]; curative", "result": "does not act"}, {"measurement": "Glucose resistance (IPGTT)", "setting": "mice on HF/HS diet [5]; at 12 weeks", "result": "AUC value intermediate between HF/HS and normal diet"}, {"measurement": "Glucose resistance (IPGTT)", "setting": "mice on HF/HS diet [5]; at 18 weeks, return to normal kinetics", "result": "completely cancels out the effects of the HF/HS diet"}, {"measurement": "IPIST", "setting": "mice on HF/HS diet [6]; TZD 10 mg/kg/day, (3 W***)", "result": "↓↓"}, {"measurement": "Insulin sensitivity (IPIST)", "setting": "mice on HF/HS diet [6]; TZD, (15 min)", "result": "restores sensitivity to insulin"}, {"measurement": "Alkaline phosphatase (ALP)", "setting": "mice on HF/HS diet [7]", "result": "increase"}, {"measurement": "ACO (target PPARα) mRNA", "setting": "ACO (target PPARα)", "result": "↑"}, {"measurement": "PEPCK (target PPARγ) mRNA", "setting": "PEPCK (target PPARγ)", "result": "↑"}, {"measurement": "CYP7A1 (conversion oxysterol into biliary acids) mRNA", "setting": "CYP7A1", "result": "↑↑"}, {"measurement": "ME, FAS, ACC (fatty acid synthesis) mRNA", "setting": "[8]", "result": "↑↑"}, {"measurement": "PGC-1 (mitochondria biogenesis) mRNA", "setting": "[9]", "result": "↑ (muscle)"}]}
